In ChEMBL document CHEMBL5230081, “Battle against Vancomycin-Resistant Bacteria: Recent Developments in Chemical Strategies” (J Med Chem, 2019) one finds MIC data, which are given here for seven molecules.

Structures are written as SMILES.

The test system of the assay is Enterococcus faecium. Put plainly: Antimicrobial activity against Vancomycin-resistant (Van A) Enterococcus faecium ATCC 51559 assessed as reduction in microbial growth. Format: functional.
Where [1] appears, read: Enterococcus faecium, ATCC 51559, read-out: MIC.

A word on the MIC: it is the lowest concentration that inhibits growth of the organism. For `CN[C@H](CC(C)C)C(=O)N[C@H]1C(=O)N[C@@H](CC(N)=O)C(=O)N[C@H]2C(=O)N[C@H]3C(=O)N[C@H](C(=O)N[C@H](C(=O)O)c4cc(OC)cc(OC)c4-c4cc3ccc4OC)[C@H](O)c3ccc(c(Cl)c3)Oc3cc2cc(c3OC)Oc2ccc(cc2Cl)[C@H]1O`, the MIC is 1.6 mg/L.
The same measure, in the same setting: in the case of `CCCCCCCCCC(=O)OC[C@H]1O[C@@H](Oc2c3cc4cc2Oc2ccc(cc2Cl)[C@@H](O)[C@@H](NC(=O)[C@@H](CC(C)C)NC)C(=O)N[C@@H](CC(N)=O)C(=O)N[C@H]4C(=O)N[C@H]2C(=O)N[C@H](C(=O)N[C@H](C(=O)O)c4ccccc4-c4cccc2c4)[C@H](O)c2ccc(c(Cl)c2)O3)[C@H](O[C@H]2C[C@](C)(N)[C@H](O)[C@H](C)O2)[C@@H](O)[C@@H]1O` it was 1 mg/L.
`CN[C@H]1C(=O)N[C@@H]2Cc3ccc(cc3)Oc3cc4cc(c3O[C@@H]3O[C@H](C(=O)O)[C@@H](O)[C@H](O)[C@H]3NC(=O)CCCCCCCCC(C)C)Oc3ccc(cc3Cl)[C@@H](O)[C@@H]3NC(=O)[C@H](NC(=O)[C@@H]4NC(=O)[C@@H](NC2=O)c2cc(cc(O)c2Cl)Oc2cc1ccc2O)c1ccc(O)c(c1)-c1c(O[C@H]2O[C@H](CO)[C@@H](O)[C@H](O)[C@@H]2O)cc(O)cc1[C@@H](C(=O)NCCCN(C)C)NC3=O` [DALBAVANCIN]: the MIC was found to be 0.1 mg/L.
Consider `CCCCCCCCCC(=O)O[C@H]1[C@H](O)[C@@H](O[C@H]2C[C@](C)(N)[C@H](O)[C@H](C)O2)[C@H](Oc2c3cc4cc2Oc2ccc(cc2Cl)[C@@H](O)[C@@H](NC(=O)[C@@H](CC(C)C)NC)C(=O)N[C@@H](CC(N)=O)C(=O)N[C@H]4C(=O)N[C@H]2C(=O)N[C@H](C(=O)N[C@H](C(=O)O)c4ccccc4-c4cccc2c4)[C@H](O)c2ccc(c(Cl)c2)O3)O[C@@H]1CO`, for which the MIC under setting [1] came to 16 mg/L.
For the molecule `CN[C@H](CC(C)C)C(=O)N[C@H]1C(=O)N[C@@H](CC(N)=O)C(=O)N[C@H]2C(=O)N[C@H]3C(=O)N[C@H](C(=O)N[C@H](C(=O)NCCCNCCCCCCCCNCCCNC(=O)[C@H]4NC(=O)[C@H]5NC(=O)[C@H](NC(=O)[C@@H]6NC(=O)[C@H](CC(N)=O)NC(=O)[C@H](NC(=O)[C@@H](CC(C)C)NC)[C@H](O)c7ccc(c(Cl)c7)Oc7cc6cc(c7O[C@@H]6O[C@H](CO)[C@@H](O)[C@H](O)[C@H]6O[C@H]6C[C@](C)(N)[C@H](O)[C@H](C)O6)Oc6ccc(cc6Cl)[C@H]5O)c5ccc(O)c(c5)-c5c(O)cc(O)cc54)c4cc(O)cc(O)c4-c4cc3ccc4O)[C@H](O)c3ccc(c(Cl)c3)Oc3cc2cc(c3O)Oc2ccc(cc2Cl)[C@H]1O`, the MIC amounted to 0.1 µM. Also, the MIC under setting [1] was determined as 48 µM.
For `CN[C@H](CC(C)C)C(=O)N[C@H]1C(=O)N[C@@H](CC(N)=O)C(=O)N[C@H]2C(=O)N[C@H]3C(=O)N[C@H](C(=O)N[C@H](C(=O)O)c4ccccc4-c4cccc3c4)[C@H](O)c3ccc(c(Cl)c3)Oc3cc2cc(c3O[C@@H]2O[C@H](CO)[C@@H](O)[C@H](O)[C@H]2O[C@H]2C[C@](C)(NCc3ccc(OCCCN4C(=O)[C@@H]5[C@H](C4=O)[C@@H](C)C[C@H]5/C=C/c4ccccc4)cc3)[C@H](O)[C@H](C)O2)Oc2ccc(cc2Cl)[C@H]1O`, in that order: 2 mg/L and 31 mg/L.
As to `CN[C@H](CC(C)C)C(=O)N[C@H]1C(=O)N[C@@H](CC(N)=O)C(=O)N[C@H]2C(=O)N[C@H]3C(=O)N[C@H](C(=O)N[C@H](C(=O)O)c4cc(O)cc(O)c4-c4cc3ccc4O)[C@H](O)c3ccc(c(Cl)c3)Oc3cc2cc(c3O[C@@H]2O[C@H](CO)[C@@H](O)[C@H](O)[C@H]2O[C@H]2C[C@](C)(N)[C@H](O)[C@H](C)O2)Oc2ccc(cc2/C=C/c2ccc(-c3ccccc3)cc2)[C@H]1O`, the MIC stood at 2 mg/L.
